Assay results from ChEMBL document CHEMBL1201862, “PubChem BioAssay data set” (2004).
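Compound exposure: 48 hours, 5 concentrations, 96-well plates. At the GI50, growth is halved.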 The source made the active and inactive calls. No stated cut-off is given here; in the data, active = GI50 up to about 1.1 µM and inactive = higher.

Key:
Test in all cases: inhibition of tumour cell growth, NCI panel, 48 h
786-0 = system: 786-0
A498 = system: A498
HOP-62 = system: HOP-62
HT-29 = system: HT-29
LOX IMVI = system: LOX IMVI
MDA-MB-231 = system: MDA-MB-231
MDA-N = system: MDA-N
MOLT-4 = system: MOLT-4
Malme-3M = system: Malme-3M
NCI-H23 = system: NCI-H23
OVCAR-3 = system: OVCAR-3
RXF 393 = system: RXF 393
SF-295 = system: SF-295
SK-MEL-28 = system: SK-MEL-28
SK-MEL-5 = system: SK-MEL-5
SNB-75 = system: SNB-75
SW-620 = system: SW-620
UACC-257 = system: UACC-257
UO-31 = system: UO-31

COc1cc(N(CCC#N)CCC#N)ccc1/C=C1\SC(=S)NC1=O
GI50 (786-0): > 100 µM (inactive) | GI50 (A498): > 100 µM (inactive) | GI50 (HOP-62): > 100 µM (inactive) | GI50 (HT-29): > 100 µM (inactive) | GI50 (LOX IMVI): > 100 µM (inactive) | GI50 (MDA-MB-231): > 100 µM (inactive) | GI50 (MDA-N): > 100 µM (inactive) | GI50 (MOLT-4): > 100 µM (inactive) | GI50 (Malme-3M): > 100 µM (inactive) | GI50 (NCI-H23): > 100 µM (inactive) | GI50 (OVCAR-3): > 100 µM (inactive) | GI50 (RXF 393): > 100 µM (inactive) | GI50 (SF-295): > 100 µM (inactive) | GI50 (SK-MEL-28): > 100 µM (inactive) | GI50 (SK-MEL-5): > 100 µM (inactive) | GI50 (SNB-75): > 100 µM (inactive) | GI50 (SW-620): > 100 µM (inactive) | GI50 (UACC-257): > 100 µM (inactive) | GI50 (UO-31): > 100 µM (inactive)

O=[N+]([O-])c1ccc2nc(Cl)n[n+]([O-])c2c1
GI50 (786-0): 8.3 µM (inactive) | GI50 (A498): 0.65 µM (active) | GI50 (HOP-62): 17.1 µM (inactive) | GI50 (HT-29): 11.7 µM (inactive) | GI50 (LOX IMVI): 1.8 µM (inactive) | GI50 (MDA-MB-231): 11.7 µM (inactive) | GI50 (MDA-N): 11.6 µM (inactive) | GI50 (MOLT-4): 1.15 µM (inactive) | GI50 (Malme-3M): 15.9 µM (inactive) | GI50 (NCI-H23): 15.3 µM (inactive) | GI50 (OVCAR-3): 7.43 µM (inactive) | GI50 (RXF 393): 15.1 µM (inactive) | GI50 (SF-295): 22.7 µM (inactive) | GI50 (SK-MEL-28): 18.3 µM (inactive) | GI50 (SK-MEL-5): 6.68 µM (inactive) | GI50 (SNB-75): 14.4 µM (inactive) | GI50 (SW-620): 12.4 µM (inactive) | GI50 (UACC-257): 15.4 µM (inactive) | GI50 (UO-31): 17 µM (inactive)

O=C(O)C1CC(c2ccccc2)=NN1c1ccccc1 (stereo not drawn)
GI50 (786-0): 56.9 µM (inactive) | GI50 (A498): 51.4 µM (inactive) | GI50 (HOP-62): > 100 µM (inactive) | GI50 (HT-29): 34.2 µM (inactive) | GI50 (LOX IMVI): 41.9 µM (inactive) | GI50 (MDA-MB-231): > 100 µM (inactive) | GI50 (MDA-N): 99.5 µM (inactive) | GI50 (MOLT-4): 31.7 µM (inactive) | GI50 (Malme-3M): 32.5 µM (inactive) | GI50 (NCI-H23): 52.6 µM (inactive) | GI50 (OVCAR-3): 42 µM (inactive) | GI50 (RXF 393): 87.1 µM (inactive) | GI50 (SF-295): 64.6 µM (inactive) | GI50 (SK-MEL-28): > 100 µM (inactive) | GI50 (SK-MEL-5): 34.4 µM (inactive) | GI50 (SNB-75): > 100 µM (inactive) | GI50 (SW-620): 92.3 µM (inactive) | GI50 (UACC-257): 51.9 µM (inactive) | GI50 (UO-31): 39.9 µM (inactive)

Clc1ccc(-c2ccc(-c3nn4c(CNc5ccccc5)nnc4s3)o2)c(Cl)c1
GI50 (786-0): > 100 µM (inactive) | GI50 (A498): > 100 µM (inactive) | GI50 (HOP-62): > 100 µM (inactive) | GI50 (HT-29): 40.1 µM (inactive) | GI50 (LOX IMVI): > 100 µM (inactive) | GI50 (MDA-MB-231): 69.8 µM (inactive) | GI50 (MDA-N): 45.1 µM (inactive) | GI50 (MOLT-4): 24 µM (inactive) | GI50 (Malme-3M): > 100 µM (inactive) | GI50 (NCI-H23): 53.6 µM (inactive) | GI50 (OVCAR-3): 45.2 µM (inactive) | GI50 (RXF 393): 33.5 µM (inactive) | GI50 (SF-295): 60.1 µM (inactive) | GI50 (SK-MEL-28): > 100 µM (inactive) | GI50 (SK-MEL-5): 33.4 µM (inactive) | GI50 (SNB-75): 50.7 µM (inactive) | GI50 (SW-620): > 100 µM (inactive) | GI50 (UACC-257): 53.1 µM (inactive) | GI50 (UO-31): > 100 µM (inactive)

O=C1C=CC2(O[C@H](C3CCCCC3)[C@@H](C3CCCCC3)O2)C(SC(=O)c2ccccc2)C1 (stereo partly drawn)
GI50 (786-0): 1.68 µM (inactive) | GI50 (A498): 8.41 µM (inactive) | GI50 (HOP-62): 3.23 µM (inactive) | GI50 (HT-29): 1.36 µM (inactive) | GI50 (LOX IMVI): 1.41 µM (inactive) | GI50 (MDA-MB-231): 1.39 µM (inactive) | GI50 (MDA-N): 1.78 µM (inactive) | GI50 (MOLT-4): 1.09 µM (active) | GI50 (Malme-3M): 3.66 µM (inactive) | GI50 (NCI-H23): 2.47 µM (inactive) | GI50 (OVCAR-3): 0.891 µM (active) | GI50 (RXF 393): 1.01 µM (active) | GI50 (SF-295): 7.14 µM (inactive) | GI50 (SK-MEL-28): 0.347 µM (active) | GI50 (SK-MEL-5): 1.77 µM (inactive) | GI50 (SNB-75): 7.24 µM (inactive) | GI50 (SW-620): 1.91 µM (inactive) | GI50 (UACC-257): 7.05 µM (inactive) | GI50 (UO-31): 1.55 µM (inactive)

C/C(=N\[N+](C)(C)C)c1ccc(C)c(C)c1
GI50 (786-0): > 10 µM (inactive) | GI50 (A498): 22.3 µM (inactive) | GI50 (HOP-62): > 10 µM (inactive) | GI50 (HT-29): 21.1 µM (inactive) | GI50 (LOX IMVI): > 10 µM (inactive) | GI50 (MDA-MB-231): > 10 µM (inactive) | GI50 (MDA-N): 45.8 µM (inactive) | GI50 (MOLT-4): > 10 µM (inactive) | GI50 (Malme-3M): > 10 µM (inactive) | GI50 (NCI-H23): 62.5 µM (inactive) | GI50 (OVCAR-3): 78.2 µM (inactive) | GI50 (RXF 393): 62.8 µM (inactive) | GI50 (SF-295): 83.6 µM (inactive) | GI50 (SK-MEL-28): > 10 µM (inactive) | GI50 (SK-MEL-5): 35.7 µM (inactive) | GI50 (SNB-75): 53.5 µM (inactive) | GI50 (SW-620): 51.3 µM (inactive) | GI50 (UACC-257): 0.752 µM (active) | GI50 (UO-31): 77.4 µM (inactive)

CC1=CC[C@H](C(C)C)C(C(O)[C@@H](C)O[Si](c2ccccc2)(c2ccccc2)C(C)(C)C)C1=O (stereo partly drawn)
GI50 (786-0): 15 µM (inactive) | GI50 (A498): 18.6 µM (inactive) | GI50 (HOP-62): 20.9 µM (inactive) | GI50 (HT-29): 11.9 µM (inactive) | GI50 (LOX IMVI): 21.8 µM (inactive) | GI50 (MDA-MB-231): 15.5 µM (inactive) | GI50 (MDA-N): 21.2 µM (inactive) | GI50 (MOLT-4): 7.36 µM (inactive) | GI50 (Malme-3M): 28.8 µM (inactive) | GI50 (NCI-H23): 16.6 µM (inactive) | GI50 (OVCAR-3): 17 µM (inactive) | GI50 (RXF 393): 13.5 µM (inactive) | GI50 (SF-295): 15 µM (inactive) | GI50 (SK-MEL-28): 32.3 µM (inactive) | GI50 (SK-MEL-5): 16.2 µM (inactive) | GI50 (SNB-75): 23 µM (inactive) | GI50 (SW-620): 18.9 µM (inactive) | GI50 (UACC-257): 12.1 µM (inactive) | GI50 (UO-31): 15.2 µM (inactive)
